Values of other authors, collected in patent publication US20210038510A1, “FORMULATIONS OF KINASE INHIBITORS AND PROSTANOIDS” (PULMOKINE, INC., priority 2018, published 2021).

What was measured:
[1] = system: rat monocrotaline model of PAH
[2] = system: patients with advanced PAH
[3] = system: PDGFRβ isoform versus PDGFRα isoform

## Cc1ccc(NC(=O)c2ccc(CN3CCN(C)CC3)cc2)cc1Nc1nccc(-c2cccnc2)n1 [Imatinib, imatinib]
[1]
  Right ventricular systolic pressure (RVSP): decreases
  Survival: improves survival
[2]
  Cardiopulmonary hemodynamics: improves cardiopulmonary hemodynamics
[3]
  Potency against the PDGFRβ isoform compared with the PDGFRα isoform: less potent
